Experimental data: patent US20020132276A1, “FACS method for detecton of GPIIb/IIIa inhibitor dependent activators in plasma samples” (priority 1999, published 2002)
“Also recorded” adds a separate entry of the source.

How the values were obtained:
[1] = tested on: platelet CD62; assay: Depletion of DDPAS from plasma by platelets with Compound A, and EDTA elution, read in the DDPASFCA; format: cell-based, human
Experimental: Thrombocytopenic patient plasma was processed as described in Example 1 and Delta fluorescence is shown (FIG. 3, panel A) as a function of volume percent patient plasma. After treatment of 099016 plasma with platelets in the presence and in the absence of compound A, samples were evaluated in the DDPASFCA at a 1/3 dilution using fresh donor PRP.
Thrombocytopenic patient 099016 plasma was evaluated in the DDPASFCA as in Example 1, with the modification that 10 μL of sample, or a sample of 099016 plasma diluted into DDPASFCA-negative plasma, was combined with 20 μL donor PRP (final platelet concentration=1×10^8/mL). The signal in the DDPASFCA was proportional to the patient plasma dilution. Next, the ability of platelets, a physiologically relevant source of GPIIb/IIIa, to remove certain kinds of DDPASs was tested. DDPAS positive thrombocytopenic plasma 099016 (70 μl) was treated with fresh donor PRP (140 μL, final platelet concentration 3×10^8/mL) for 60 minutes in the presence or the absence of compound A (1 μM). Platelets were removed by centrifugation at 1000×G for 5 minutes, and the resulting plasma samples were tested in the DDPASFCA as in Example 1, with the modification that 3 μL of sample was combined with 27 μL donor PRP (final platelet concentration=1×10^8/mL) in the presence or the absence of Compound A (1 μM). […] The samples were then evaluated in the DDPASFCA.

[2] = tested on: drug-dependent anti-platelet antibody (DDAB); assay: Depletion and recovery of DDAB from patient 099016 plasma by platelets with Compound A, read in the DDAB ELISA; format: binding, human
Experimental: Thrombocytopenic patient plasma was processed as described in Example 9. After treatment of 099016 plasma with platelets in the presence and in the absence of Compound A, samples were evaluated in the DDAB ELISA (see commonly-owned pending U.S. patent application Ser. No. 09/237061, filed Jan. 26, 1999, the contents of which are herein incorporated by reference) at 3 dilutions (1/100; 1/250 and 1/500) for residual DDAB. Murine JK094 was used as a positive control for the ELISA.
Thrombocytopenic patient 099016 plasma was processed with platelets in the presence or the absence of Compound A to deplete any DDAB as described in Example 9. After treatment of 099016 plasma with platelets in the presence and in the absence of Compound A, samples were evaluated in the DDAB ELISA at 3 dilutions (1/100, 1/250 and 1/500) for residual DDAB. Murine JK094 was used as a positive control for the ELISA.

[3] = tested on: platelet CD62; assay: DDPASFCA in alternative microtiter plates (Costar Serocluster #3897 versus #3898); format: cell-based, human; conditions: Compound A 200 nM
Experimental: ADP and DPC38 were used as sources of DDPASs. 2 μL of citrated PRP (DPC3) was added to either Costar Serocluster® 96 well V-bottom microtiterplates (#3897) or #3898 microtiter plates (Costar Serocluster®) (rated as “hydrophilic” in nature by the manufacturer). Platelets were then treated with and without Compound A (200 nM) with the indicated concentrations of ADP. Similarly, DDPAS positive PRP (DPC38) was added to wells of both types of plates and treated with and without Compound A (200 nM). Reactions were incubated without shaking for 120 minutes. After this time, 20 μL of phycoerythrin conjugated anti-CD62 (anti-CD62-PE, Bectin Dickinson) was added. After 30 minutes the samples were diluted with 150 μL flow buffer and bound anti-CD62-PE measured as described in Example 1.
Delta SC=Delta Fluorescence for Costar Serocluster microtiter plates
Delta H=Delta Fluorescence for H3898 microtiter plates

[4] = Thrombocytopenia in a patient who received Compound A; format: in vivo, human; conditions: patient #304
Experimental: The development of DDPASs in the plasma of a patient who received Compound A and developed thrombocytopenia was analyzed using the procedure of Example 1. DDPASFCA was not determined for patient #304 prior to taking Compound A. The patient experienced thrombocytopenia after 3 days of administration of Compound A. DDPASs were subsequently detected in this patient's plasma on day 22 post-administration of Compound A and were also detected 17 months later (FIG. 2). DPC38 was used as a positive control. DPC3 was used as a negative control. […] In a prospective study, a patient with such pre-existing DDPASs could be excluded from the study, possibly preventing the clinically significant thrombocytopenic episode.

[5] = platelet donor DPC38 (DDPAS positive PRP), ADP 0 uM
[6] = platelet donor DPC50 (DDPASFCA negative), ADP 0 uM

CCCCOC(=O)N[C@@H](CNC(=O)C[C@H]1CC(c2ccc(C(=N)N)cc2)=NO1)C(=O)O [Compound A, 2(S)-[(n-butoxycarbonyl)amino]-3-[[[3-[4-(aminoiminomethyl)phenyl]isoxazolin-5(R)-yl]methylcarbonyl]amino]propionic acid]
residual DDPAS in plasma after treatment with platelets ([1]; patient 099016 plasma, donor PRP 60 minutes, Compound A 1 μM): depleted of the DDPAS; also recorded: specifically depleted the DDPAS | DDPAS in EDTA eluate of platelets ([1]; platelets treated with 099016 plasma with Compound A, 9 mM EDTA, 37° C., 2 hours, versus DPC43 and DPC44): substantially positive; also recorded: elevated DDPAS | residual DDAB in plasma after treatment with platelets ([2]; patient 099016 plasma, donor platelets, Compound A, dilutions 1/100, 1/250 and 1/500): specifically depleted the DDAB | DDAB in EDTA eluants of platelets ([2]; platelets treated with 099016 plasma with Compound A): showed DDAB; also recorded: contain a detectable DDAB | Delta CS (Delta Fluorescence for Costar Serocluster microtiter plates) ([3]; platelet donor DPC3, ADP 0 uM): 24 | Delta H (Delta Fluorescence for H3898 microtiter plates) ([3]; platelet donor DPC3, ADP 0 uM): 28 | Delta CS (Delta Fluorescence for Costar Serocluster microtiter plates) [3, 5]: 190 | Delta H (Delta Fluorescence for H3898 microtiter plates) [3, 5]: 338 | Delta CS (Delta Fluorescence for Costar Serocluster microtiter plates) [3, 6]: 0 | Delta H (Delta Fluorescence for H3898 microtiter plates) [3, 6]: −1 | time to thrombocytopenia after start of administration [4]: 3 days
